For the assay, the target named is T1, hNaV1.7 (Homo sapiens, UniProt Q15858).
T1 construct: expressed in transfected cells; host or cells: HEK293
The experiment in a line: QPatch NaV1.7 assay (whole-cell patch clamp, QPatch16x). Format: cell-based. The settings on record: HEK293-hNaV1.7 cells. The gist of the method: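 HEK293 cells expressing hNaV1.7 recorded by automated whole-cell patch clamp (CsF internal, pH 7.3). Peak currents from 20 ms steps to 0 mV measured at holding potentials of −90 mV and V1/2 SSI; four-point cumulative concentrations, 120 s each, Hill fits gave pIC50 at each potential.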
(In patch-clamp work, channel activity is measured electrically.)

Setting [1] is: holding voltage V1/2 SSI (half of channels inactivated), read-out: QP Nav1.7 SSI vhalf pIC50 (converted).
[2] abbreviates: holding voltage −90 mV (most channels closed), read-out: QP Nav1.7 −90 mV pIC50 (converted).

The results in this text go back to patent US9376436B2, “2-(pyridin-2yl)-1, 7-diaza-spiro [4.4] nonane-6-one compound as voltage-gated sodium channels modulators” (CONVERGENCE PHARMACEUTICALS LIMITED, priority 2011, dated 2016).

SMILES strings stand for the structures. Structures can show the parent of a compound that is named as a salt. Where two headings read alike, the source gives them in different places.

T1 sequence (Q15858 whole entry): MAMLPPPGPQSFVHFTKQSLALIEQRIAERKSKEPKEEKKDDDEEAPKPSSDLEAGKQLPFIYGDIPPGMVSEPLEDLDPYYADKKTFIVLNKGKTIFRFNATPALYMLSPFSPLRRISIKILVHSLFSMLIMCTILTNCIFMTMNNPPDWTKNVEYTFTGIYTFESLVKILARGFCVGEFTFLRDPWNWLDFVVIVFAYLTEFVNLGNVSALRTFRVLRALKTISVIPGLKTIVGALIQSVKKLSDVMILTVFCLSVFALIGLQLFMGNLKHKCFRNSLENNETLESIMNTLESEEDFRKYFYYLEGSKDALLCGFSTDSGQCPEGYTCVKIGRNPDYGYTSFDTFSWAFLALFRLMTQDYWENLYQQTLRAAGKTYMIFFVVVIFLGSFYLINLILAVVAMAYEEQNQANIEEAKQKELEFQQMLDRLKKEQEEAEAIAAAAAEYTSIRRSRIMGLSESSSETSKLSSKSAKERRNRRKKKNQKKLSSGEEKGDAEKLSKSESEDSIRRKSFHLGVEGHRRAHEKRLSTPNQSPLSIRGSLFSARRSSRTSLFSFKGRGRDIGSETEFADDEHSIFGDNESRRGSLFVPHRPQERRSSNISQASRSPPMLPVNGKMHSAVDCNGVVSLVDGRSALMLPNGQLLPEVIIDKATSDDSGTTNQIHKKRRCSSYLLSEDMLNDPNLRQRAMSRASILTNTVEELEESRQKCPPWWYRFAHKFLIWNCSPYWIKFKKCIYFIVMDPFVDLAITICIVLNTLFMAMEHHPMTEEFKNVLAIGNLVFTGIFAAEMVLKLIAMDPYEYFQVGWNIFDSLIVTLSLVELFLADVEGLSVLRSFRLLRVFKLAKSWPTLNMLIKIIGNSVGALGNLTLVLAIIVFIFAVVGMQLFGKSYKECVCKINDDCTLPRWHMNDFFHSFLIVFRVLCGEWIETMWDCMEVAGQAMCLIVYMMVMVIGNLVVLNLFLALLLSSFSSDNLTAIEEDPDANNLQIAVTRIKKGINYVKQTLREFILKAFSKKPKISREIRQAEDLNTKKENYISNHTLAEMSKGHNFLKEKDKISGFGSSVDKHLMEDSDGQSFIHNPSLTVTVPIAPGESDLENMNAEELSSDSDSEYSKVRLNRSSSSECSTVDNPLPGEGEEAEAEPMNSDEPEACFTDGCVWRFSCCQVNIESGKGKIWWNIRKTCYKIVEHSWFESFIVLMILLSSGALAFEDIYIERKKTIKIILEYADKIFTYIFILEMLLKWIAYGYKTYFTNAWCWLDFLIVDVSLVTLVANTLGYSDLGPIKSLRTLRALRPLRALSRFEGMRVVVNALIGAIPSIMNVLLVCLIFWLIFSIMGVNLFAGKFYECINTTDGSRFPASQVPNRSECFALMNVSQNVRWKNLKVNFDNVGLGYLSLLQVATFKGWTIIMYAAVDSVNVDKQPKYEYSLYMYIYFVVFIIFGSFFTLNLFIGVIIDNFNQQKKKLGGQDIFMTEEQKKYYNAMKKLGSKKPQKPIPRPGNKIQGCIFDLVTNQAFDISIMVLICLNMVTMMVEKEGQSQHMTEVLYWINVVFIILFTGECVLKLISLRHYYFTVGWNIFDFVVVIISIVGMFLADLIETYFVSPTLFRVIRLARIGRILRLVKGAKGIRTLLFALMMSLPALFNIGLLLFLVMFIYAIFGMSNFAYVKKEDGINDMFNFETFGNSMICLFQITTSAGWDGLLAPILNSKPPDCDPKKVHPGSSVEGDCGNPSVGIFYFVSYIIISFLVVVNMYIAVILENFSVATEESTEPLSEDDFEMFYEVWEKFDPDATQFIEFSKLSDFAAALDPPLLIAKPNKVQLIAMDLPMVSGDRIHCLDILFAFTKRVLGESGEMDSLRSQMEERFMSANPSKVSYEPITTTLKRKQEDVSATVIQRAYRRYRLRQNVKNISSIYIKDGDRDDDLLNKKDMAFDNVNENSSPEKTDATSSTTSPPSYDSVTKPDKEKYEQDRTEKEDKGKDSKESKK

On to `CCOc1cc(-c2ccnc([C@@H]3CC[C@@]4(CCN(C)C4=O)N3)c2)c(F)cc1C` [Example 150, (2S,5S)-2-[4-(5-Ethoxy-2-fluoro-4-methyl-phenyl)-2-pyridyl]-7-methyl-1,7-diazaspiro[4.4]nonan-6-one hydrochloride], for which the IC50 under setting [1] is 12.6 µM and the IC50 under setting [2] was 126 µM.
For `CCOc1cc(-c2ccnc([C@H]3CC[C@@]4(CCN(C)C4=O)N3)c2)c(F)cc1C` [Example 151, (2R,5S)-2-[4-(5-Ethoxy-2-fluoro-4-methyl-phenyl)-2-pyridyl]-7-methyl-1,7-diazaspiro[4.4]nonan-6-one hydrochloride], in that order: 15.8 µM and 100 µM.
The corresponding values for `COc1cnc([C@H]2CC[C@]3(CCN(C)C3=O)N2)cc1-c1ccc(C(F)(F)F)cc1` [Example 152, (2R,5R)-2-[5-Methoxy-4-[4-(trifluoromethyl)phenyl]-2-pyridyl]-7-methyl-1,7-diazaspiro[4.4]nonan-6-one hydrochloride] are 15.8 µM and 200 µM.
The corresponding values for `COc1cnc([C@@H]2CC[C@]3(CCN(C)C3=O)N2)cc1-c1ccc(C(F)(F)F)cc1` [Example 153, (2S,5R)-2-[5-Methoxy-4-[4-(trifluoromethyl)phenyl]-2-pyridyl]-7-methyl-1,7-diazaspiro[4.4]nonan-6-one hydrochloride] are 12.6 µM and 158 µM.
In the case of `COc1cnc([C@@H]2CC[C@@]3(CCN(C)C3=O)N2)cc1-c1ccc(C(F)(F)F)cc1` [Example 154, (2S,5S)-2-[5-Methoxy-4-[4-(trifluoromethyl)phenyl]-2-pyridyl]-7-methyl-1,7-diazaspiro[4.4]nonan-6-one hydrochloride], the IC50 by setting is: under setting [1], 12.6 µM; under setting [2], 100 µM.
For `COc1cnc([C@H]2CC[C@@]3(CCN(C)C3=O)N2)cc1-c1ccc(C(F)(F)F)cc1` [Example 155, (2R,5S)-2-[5-Methoxy-4-[4-(trifluoromethyl)phenyl]-2-pyridyl]-7-methyl-1,7-diazaspiro[4.4]nonan-6-one hydrochloride], in that order: 3.98 µM and 39.8 µM.
The corresponding values for `CN1CC[C@@]2(CC[C@H](c3cc(-c4ccc(OC(F)F)cc4F)ccn3)N2)C1=O` [Example 156, (2R,5S)-2-[4-(4-Difluoromethoxy-2-fluoro-phenyl)-pyridin-2-yl]-7-methyl-1,7-diaza-spiro[4.4]nonan-6-one hydrochloride] are 20 µM and 126 µM.
For `CN1CC[C@@]2(CC[C@H](c3cc(-c4cn(C)c5ccccc45)ccn3)N2)C1=O` [Example 157, (2R,5S)-7-Methyl-2-[4-(1-methyl-1H-indol-3-yl)-pyridin-2-yl]-1,7-diaza-spiro[4.4]nonan-6-one hydrochloride], in that order: 25.1 µM and 79.4 µM.
As to `CCOc1c(F)cccc1-c1ccnc([C@H]2CC[C@@]3(CCN(C)C3=O)N2)c1` [Example 158, (2R,5S)-2-[4-(2-Ethoxy-3-fluoro-phenyl)-2-pyridyl]-7-methyl-1,7-diazaspiro[4.4]nonan-6-one hydrochloride], the IC50 runs as follows: under setting [1], 63.1 µM; under setting [2], 1260 µM.
The corresponding values for `CC(C)c1ccc(F)c(-c2ccnc([C@H]3CC[C@@]4(CCN(C)C4=O)N3)c2)c1` [Example 159, (2R,5S)-2-[4-(2-Fluoro-5-isopropyl-phenyl)-2-pyridyl]-7-methyl-1,7-diazaspiro[4.4]nonan-6-one hydrochloride] are 7.94 µM and 31.6 µM.
Take `CN1CC[C@@]2(CC[C@H](c3cc(-c4cc(N5CCCC5=O)ccc4F)ccn3)N2)C1=O` [Example 160, (2R,5S)-2-[4-[2-Fluoro-5-(2-oxopyrrolidin-1-yl)phenyl]-2-pyridyl]-7-methyl-1,7-diazaspiro[4.4]nonan-6-one hydrochloride]: the IC50 under setting [1] was 1580 µM.
For `CC(C)Oc1ccc(-c2ccnc([C@@H]3CC[C@@]4(CCN(C)C4=O)N3)c2)cc1` [Example 161, (2S,5S)-2-[4-(4-Isopropoxyphenyl)-2-pyridyl]-7-methyl-1,7-diazaspiro[4.4]nonan-6-one hydrochloride], the IC50 is, setting by setting: under setting [1], 39.8 µM; under setting [2], 126 µM.
For `CC(C)Oc1ccc(-c2ccnc([C@H]3CC[C@@]4(CCN(C)C4=O)N3)c2)cc1` [Example 162, (2R,5S)-2-[4-(4-Isopropoxyphenyl)-2-pyridyl]-7-methyl-1,7-diazaspiro[4.4]nonan-6-one hydrochloride], in that order: 3.98 µM and 15.8 µM.
On to `COc1ccc(-c2ccnc([C@H]3CC[C@@]4(CCN(C)C4=O)N3)c2)cc1OC` [Example 163, (2R,5S)-2-[4-(3,4-Dimethoxyphenyl)-2-pyridyl]-7-methyl-1,7-diazaspiro[4.4]nonan-6-one hydrochloride], for which, under setting [2], the IC50 is 7940 µM.
With `CN1CC[C@@]2(CC[C@H](c3cc(-c4cccc5cccnc45)ccn3)N2)C1=O` [Example 164, (2R,5S)-7-Methyl-2-[4-(8-quinolyl)-2-pyridyl]-1,7-diazaspiro[4.4]nonan-6-one hydrochloride], the IC50 was 39.8 µM under setting [1] and 1260 µM under setting [2].
Take `CN1CC[C@@]2(CC[C@H](c3cc(-c4cccc(Cl)c4C#N)ccn3)N2)C1=O` [Example 165, 2-Chloro-6-[2-[(2R,5S)-7-methyl-6-oxo-1,7-diazaspiro[4.4]nonan-2-yl]-4-pyridyl]benzonitrile hydrochloride]: the IC50 by setting is: under setting [1], 100 µM; under setting [2], 158 µM.
The corresponding values for `CN1CC[C@@]2(CC[C@H](c3cc(-c4ccc5c(c4)CCO5)ccn3)N2)C1=O` [Example 166, (2R,5S)-2-[4-(2,3-Dihydrobenzofuran-5-yl)-2-pyridyl]-7-methyl-1,7-diazaspiro[4.4]nonan-6-one hydrochloride] are 126 µM and 2000 µM.
In the case of `CCOc1ccc(-c2ccnc([C@H]3CC[C@@]4(CCN(C)C4=O)N3)c2)cc1C` [Example 167, (2R,5S)-2-[4-(4-Ethoxy-3-methyl-phenyl)-2-pyridyl]-7-methyl-1,7-diazaspiro[4.4]nonan-6-one hydrochloride], the IC50 is, setting by setting: under setting [1], 39.8 µM; under setting [2], 39.8 µM.
Turning to `COCc1cccc(-c2ccnc([C@H]3CC[C@@]4(CCN(C)C4=O)N3)c2)c1` [Example 168, (2R,5S)-2-[4-[3-(methoxymethyl)phenyl]-2-pyridyl]-7-methyl-1,7-diazaspiro[4.4]nonan-6-one hydrochloride], the IC50 reads like this: under setting [1], 158 µM; under setting [2], 316 µM.
For `CCOc1cc(F)ccc1-c1ccnc([C@H]2CC[C@@]3(CCN(C)C3=O)N2)c1` [Example 169, (2R,5S)-2-[4-(2-Ethoxy-4-fluoro-phenyl)-2-pyridyl]-7-methyl-1,7-diazaspiro[4.4]nonan-6-one hydrochloride], in that order: 6.31 µM and 126 µM.
The corresponding values for `CC(C)CCn1cc(-c2ccnc([C@H]3CC[C@@]4(CCN(C)C4=O)N3)c2)cn1` [Example 170, (2R,5S)-2-[4-(1-Isopentylpyrazol-4-yl)-2-pyridyl]-7-methyl-1,7-diazaspiro[4.4]nonan-6-one hydrochloride] are 25.1 µM and 398 µM.
The corresponding values for `CN1CC[C@@]2(CC[C@H](c3cc(-c4ccc(C5(C#N)CC5)cc4)ccn3)N2)C1=O` [Example 171, 1-[4-[2-[(2R,5S)-7-Methyl-6-oxo-1,7-diazaspiro[4.4]nonan-2-yl]-4-pyridyl]phenyl]cyclopropanecarbonitrile hydrochloride] are 50.1 µM and 158 µM.
Take `CN1CC[C@@]2(CC[C@H](c3cc(-c4ccc5c(c4)OC(F)(F)O5)ccn3)N2)C1=O` [Example 172, (2R,5S)-2-[4-(2,2-Difluoro-1,3-benzodioxol-5-yl)-2-pyridyl]-7-methyl-1,7-diazaspiro[4.4]nonan-6-one hydrochloride]: the IC50 is 31.6 µM under setting [1] and 316 µM under setting [2].
For `CN1CC[C@@]2(CC[C@H](c3cc(-c4cccc(-n5cccn5)c4)ccn3)N2)C1=O` [Example 173, (2R,5S)-7-Methyl-2-[4-(3-pyrazol-1-ylphenyl)-2-pyridyl]-1,7-diazaspiro[4.4]nonan-6-one hydrochloride], in that order: 12.6 µM and 200 µM.
For `Cc1cc(C)cc(-c2ccnc([C@H]3CC[C@@]4(CCN(C)C4=O)N3)c2)c1` [Example 174, (2R,5S)-2-[4-(3,5-Dimethylphenyl)-2-pyridyl]-7-methyl-1,7-diazaspiro[4.4]nonan-6-one hydrochloride], in that order: 25.1 µM and 126 µM.
On to `CCOc1cc(F)c(F)c(-c2ccnc([C@H]3CC[C@@]4(CCN(C)C4=O)N3)c2)c1` [Example 175, (2R,5S)-2-[4-(5-Ethoxy-2,3-difluoro-phenyl)-2-pyridyl]-7-methyl-1,7-diazaspiro[4.4]nonan-6-one hydrochloride], for which the IC50 is 15.8 µM under setting [1] and 200 µM under setting [2].
For `CN1CC[C@@]2(CC[C@H](c3cc(-c4cc(OC(F)(F)F)ccc4F)ccn3)N2)C1=O` [Example 176, (2R,5S)-2-[4-[2-Fluoro-5-(trifluoromethoxy)phenyl]-2-pyridyl]-7-methyl-1,7-diazaspiro[4.4]nonan-6-one hydrochloride], the IC50 was 20 µM under setting [1] and 200 µM under setting [2].
On to `CCCOc1ccc(F)c(-c2ccnc([C@H]3CC[C@@]4(CCN(C)C4=O)N3)c2)c1` [Example 177, (2R,5S)-2-[4-(2-Fluoro-5-propoxy-phenyl)-2-pyridyl]-7-methyl-1,7-diazaspiro[4.4]nonan-6-one hydrochloride], for which the IC50 under setting [1] is 0.398 µM and the IC50 under setting [2] was 12.6 µM.
